GI50 and TGI data for eight compounds are collected here from PubChem BioAssay (NCI).

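Five compound concentrations were applied to cells in 96-well plates for 48 hours; endpoints were derived by simple linear interpolation of the resulting dose-response curve. At the GI50, growth is halved. TGI denotes the concentration required for complete inhibition of growth.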

Among the test systems are LOX IMVI melanoma; SF-539 CNS; NCI-H23 lung; SW-620 colon; UACC-257 melanoma; NCI-H226 lung; HOP-92 NSCLC; NCI-H460 lung; MALME-3M melanoma; RXF 393 renal.
Common to all, as to assay: NCI anticancer screen, dose series, 48 h

Regarding `FC(F)(F)c1cccc2c(SCCc3n[nH]c(=S)o3)ccnc12`, the GI50 was 67 µM with LOX IMVI melanoma; 45.9 µM in the experiment with SF-539 CNS; 40 µM in the experiment with NCI-H23 lung; above 100 µM in the experiment on SW-620 colon; 33.3 µM with UACC-257 melanoma; 37.1 µM in the experiment on NCI-H226 lung. Moreover, the GI50 in the experiment with HOP-92 NSCLC was 28.4 µM; with NCI-H460 lung, 67.4 µM; in the experiment with MALME-3M melanoma, 44.5 µM; with RXF 393 renal, 57 µM. In addition, the TGI with LOX IMVI melanoma was above 100 µM; in the experiment with SF-539 CNS, above 100 µM; with NCI-H23 lung, above 100 µM; in the experiment on SW-620 colon it was above 100 µM; with UACC-257 melanoma it was 89 µM; in the experiment with NCI-H226 lung it was above 100 µM. Besides, the TGI with HOP-92 NSCLC is 81.6 µM; in the experiment with NCI-H460 lung, above 100 µM; in the experiment on MALME-3M melanoma, above 100 µM; with RXF 393 renal, above 100 µM.

As for `O=C(N/N=C/c1ccc(Cl)cc1Cl)c1ccc2nc(-c3ccc(Cl)cc3)[nH]c2c1`, the GI50 in the experiment with LOX IMVI melanoma is 1.57 µM; in the experiment with SF-539 CNS it was 1.7 µM; with NCI-H23 lung, 1.93 µM; in the experiment on SW-620 colon, 1.83 µM; with UACC-257 melanoma, 2.14 µM; with NCI-H226 lung, 1.77 µM. Moreover, the GI50 was 1.67 µM with HOP-92 NSCLC, 1.56 µM in the experiment with NCI-H460 lung, 1.55 µM in the experiment on MALME-3M melanoma and 1.61 µM in the experiment with RXF 393 renal. Besides, the TGI with LOX IMVI melanoma was 2.94 µM; with SF-539 CNS, 3.17 µM; with NCI-H23 lung, 4.43 µM; in the experiment on SW-620 colon, 3.69 µM; in the experiment on UACC-257 melanoma, 4.72 µM; in the experiment on NCI-H226 lung it was 3.48 µM. The TGI was 3.53 µM in the experiment on HOP-92 NSCLC, 3.13 µM with NCI-H460 lung, 3.15 µM with MALME-3M melanoma and 3.27 µM with RXF 393 renal.

On to `O=C(NC1C2CC3CC(C2)CC1C3)/C(Cl)=C1/Sc2ccccc2NC1=O` (stereo not given), for which the TGI with LOX IMVI melanoma, in the experiment with SF-539 CNS, in the experiment with NCI-H23 lung, in the experiment on SW-620 colon, with UACC-257 melanoma and in the experiment on NCI-H226 lung was above 100 µM in each case. Besides, the TGI with HOP-92 NSCLC, in the experiment on NCI-H460 lung, with MALME-3M melanoma and with RXF 393 renal was above 100 µM throughout.

Regarding `COc1cccc(N=N/C(=N\NC(=O)c2cc(Br)ccc2O)c2ccc(N(CCC#N)CCC#N)cc2OC)c1`, the GI50 was 15 µg/mL in the experiment on LOX IMVI melanoma; 42.7 µg/mL in the experiment on SF-539 CNS; 68.5 µg/mL in the experiment on NCI-H23 lung; 63.1 µg/mL with SW-620 colon; 87.8 µg/mL with UACC-257 melanoma; 22 µg/mL in the experiment with NCI-H226 lung. Moreover, the GI50 is 116 µg/mL in the experiment on HOP-92 NSCLC, 24.9 µg/mL in the experiment with NCI-H460 lung, 57.7 µg/mL with MALME-3M melanoma and 70.4 µg/mL with RXF 393 renal. Besides, the TGI in the experiment on LOX IMVI melanoma was 15 µg/mL; in the experiment on SF-539 CNS it was above 150 µg/mL; in the experiment with NCI-H23 lung, above 150 µg/mL; in the experiment on SW-620 colon it was above 150 µg/mL; in the experiment on UACC-257 melanoma it was above 150 µg/mL; in the experiment on NCI-H226 lung it was 79.7 µg/mL. The TGI was above 150 µg/mL in the experiment on HOP-92 NSCLC, 82.7 µg/mL in the experiment with NCI-H460 lung, 142 µg/mL in the experiment on MALME-3M melanoma and above 150 µg/mL in the experiment with RXF 393 renal.

`COc1ccc2c(c1)c(-c1ccc(-c3cn(C)c4ccc(OC)cc34)[nH]1)cn2C`: the GI50 with LOX IMVI melanoma is 2.03 µM; in the experiment with SF-539 CNS it was 1.92 µM; in the experiment with NCI-H23 lung, 4.84 µM; in the experiment with SW-620 colon it was 2.26 µM; in the experiment with UACC-257 melanoma, 13.7 µM; in the experiment on NCI-H226 lung, 8.2 µM. Moreover, the GI50 was 2.58 µM with HOP-92 NSCLC, 4.09 µM with NCI-H460 lung, 2.64 µM in the experiment with MALME-3M melanoma and 1.4 µM with RXF 393 renal. The TGI with LOX IMVI melanoma was determined as 4.39 µM; in the experiment with SF-539 CNS, 3.96 µM; with NCI-H23 lung it was 33 µM; in the experiment on SW-620 colon it was 5.86 µM; in the experiment on UACC-257 melanoma it was 38.7 µM; in the experiment on NCI-H226 lung, 22.2 µM. In addition, the TGI with HOP-92 NSCLC worked out at 7.21 µM; with NCI-H460 lung it was 19.5 µM; in the experiment with MALME-3M melanoma, 9.03 µM; with RXF 393 renal, 3.52 µM.

Consider `Nc1cc(S(N)(=O)=O)ccc1SSc1ccc(S(N)(=O)=O)cc1N`, for which the TGI in the experiment on LOX IMVI melanoma, with SF-539 CNS, in the experiment on NCI-H23 lung, in the experiment on SW-620 colon, in the experiment with UACC-257 melanoma and in the experiment with NCI-H226 lung was above 100 µM throughout. Also, the TGI in the experiment on HOP-92 NSCLC, with NCI-H460 lung, with MALME-3M melanoma and in the experiment on RXF 393 renal was above 100 µM in each case.

As to `O=C(N/C(=C\c1ccc(/C=C(\NC(=O)c2ccccc2)c2nc3ccccc3s2)cc1)c1nc2ccccc2s1)c1ccccc1`, the TGI in the experiment with LOX IMVI melanoma turned out to be 13.3 µM; in the experiment with SF-539 CNS, 4.61 µM; in the experiment with NCI-H23 lung it was 29.9 µM; with SW-620 colon, 14.8 µM; with UACC-257 melanoma, 17 µM; in the experiment on NCI-H226 lung, 34.3 µM. Further, the TGI came out at 25.6 µM in the experiment on HOP-92 NSCLC, 14.6 µM with NCI-H460 lung, 25.2 µM with MALME-3M melanoma and 32.6 µM in the experiment with RXF 393 renal.

On to `CCC1(NC(=O)c2cc(F)c(F)c(F)c2F)C(=O)NC(=O)N(C(C)C)C1=O` (stereo not given), for which the GI50 with LOX IMVI melanoma is 16.7 µM; with SF-539 CNS it was above 100 µM; in the experiment on NCI-H23 lung, 16.5 µM; in the experiment with SW-620 colon, 20.1 µM; in the experiment with UACC-257 melanoma it was 32.1 µM; in the experiment with NCI-H226 lung, 19.1 µM. For the same compound, the GI50 in the experiment with HOP-92 NSCLC is 17.4 µM; in the experiment on NCI-H460 lung it was 49.7 µM; in the experiment on MALME-3M melanoma, 24.9 µM; in the experiment on RXF 393 renal it was 25.3 µM. Besides, the TGI in the experiment on LOX IMVI melanoma is 54.5 µM; with SF-539 CNS it was above 100 µM; with NCI-H23 lung it was 61.5 µM; with SW-620 colon it was 50.7 µM; in the experiment with UACC-257 melanoma it was above 100 µM; with NCI-H226 lung, 46.4 µM. In addition, the TGI was 63.7 µM with HOP-92 NSCLC, above 100 µM in the experiment with NCI-H460 lung, 76.3 µM with MALME-3M melanoma and 59.1 µM in the experiment on RXF 393 renal.
